{
  "source": "patent US20120225076A1",
  "about": "“FRA-1 TARGET GENES AS DRUG TARGETS FOR TREATING CANCER” (priority 2009, published 2012)",
  "key": {"[1]": {"target": "Aurora kinase B (Homo sapiens, UniProt Q96GD4)", "sequence (Q96GD4 whole entry)": "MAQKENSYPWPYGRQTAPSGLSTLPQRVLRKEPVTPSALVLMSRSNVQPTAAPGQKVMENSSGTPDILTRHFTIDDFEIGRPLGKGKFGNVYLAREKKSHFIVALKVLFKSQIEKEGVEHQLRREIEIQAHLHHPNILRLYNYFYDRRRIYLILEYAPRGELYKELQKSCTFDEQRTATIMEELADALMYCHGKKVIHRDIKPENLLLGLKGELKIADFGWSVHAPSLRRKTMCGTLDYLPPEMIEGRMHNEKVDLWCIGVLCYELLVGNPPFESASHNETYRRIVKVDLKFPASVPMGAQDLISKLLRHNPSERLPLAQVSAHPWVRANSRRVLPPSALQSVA", "conditions": "description of known inhibitor; cited from earlier work"}, "[2]": {"tested_on": "breast cancer cells expressing high levels of Fra-1"}, "[3]": {"tested_on": "PP2A", "conditions": "cited from earlier work"}, "[4]": {"tested_on": "PP1", "conditions": "cited from earlier work"}, "[5]": {"target": "E2F1-DNA complex (Homo sapiens, UniProt Q01094)", "sequence (Q01094 whole entry, one chain of several)": "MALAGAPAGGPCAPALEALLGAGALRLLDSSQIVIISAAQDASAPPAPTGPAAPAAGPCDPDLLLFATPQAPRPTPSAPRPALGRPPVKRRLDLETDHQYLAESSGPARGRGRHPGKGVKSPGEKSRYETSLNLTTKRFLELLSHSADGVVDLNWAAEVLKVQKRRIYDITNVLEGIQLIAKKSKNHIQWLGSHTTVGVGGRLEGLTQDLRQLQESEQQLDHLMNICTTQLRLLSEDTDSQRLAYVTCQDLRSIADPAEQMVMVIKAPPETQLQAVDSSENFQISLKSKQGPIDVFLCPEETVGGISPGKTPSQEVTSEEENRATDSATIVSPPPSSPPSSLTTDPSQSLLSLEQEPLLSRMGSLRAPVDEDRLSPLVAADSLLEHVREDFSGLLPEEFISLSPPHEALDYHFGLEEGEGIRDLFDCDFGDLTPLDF", "conditions": "description of known inhibitor; cited from earlier work"}, "[6]": {"target": "PP4 (Homo sapiens, UniProt P60510)", "sequence (P60510 whole entry)": "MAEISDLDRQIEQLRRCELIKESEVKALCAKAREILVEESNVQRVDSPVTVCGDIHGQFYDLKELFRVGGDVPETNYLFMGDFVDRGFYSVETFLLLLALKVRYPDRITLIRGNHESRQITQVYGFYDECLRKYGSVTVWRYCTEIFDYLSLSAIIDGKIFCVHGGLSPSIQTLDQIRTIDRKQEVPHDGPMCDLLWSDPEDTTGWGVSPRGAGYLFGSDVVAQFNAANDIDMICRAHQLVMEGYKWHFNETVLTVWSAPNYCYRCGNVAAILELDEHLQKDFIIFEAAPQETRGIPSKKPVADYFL", "conditions": "description of known inhibitor; cited from earlier work"}, "[7]": {"target": "Adenosine A2b receptor (Homo sapiens, UniProt P29275)", "sequence (P29275 whole entry)": "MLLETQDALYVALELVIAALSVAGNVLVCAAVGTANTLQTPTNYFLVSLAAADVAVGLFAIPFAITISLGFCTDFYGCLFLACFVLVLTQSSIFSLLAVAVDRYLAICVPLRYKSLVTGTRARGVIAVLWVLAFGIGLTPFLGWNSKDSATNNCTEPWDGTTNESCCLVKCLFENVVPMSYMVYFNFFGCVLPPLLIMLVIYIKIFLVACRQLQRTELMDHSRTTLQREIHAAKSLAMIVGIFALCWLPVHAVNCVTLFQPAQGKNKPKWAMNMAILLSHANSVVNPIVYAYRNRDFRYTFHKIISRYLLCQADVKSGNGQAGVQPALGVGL", "conditions": "description of known inhibitor; cited from earlier work"}, "[8]": {"tested_on": "PRLs", "conditions": "cited from earlier work"}},
  "note": "Where a name gives a salt, the structure may show the parent alone. Read-outs that look alike come from different tables or passages of the source. Numbered stars: 1 amine (or outer) side, 2 acyl side, 3 side chain; on linkers, the order of the positions; unused ones are H or OH. Bridge positions count the residues as written; N and C are the ends. Square brackets hold non-standard residues; d marks the D form. Peptide text beside a SMILES is read from it. Adda = CO[C@@H](Cc1ccccc1)[C@@H](C)/C=C(C)/C=C/[C@H](N[*:1])[C@H](C)C(=O)[*:2]; dAsp(3S-Me) = C[C@H](C(=O)[*:3])[C@@H](N[*:1])C(=O)[*:2]; d(γGlu) = O=C(O)[C@@H](CCC(=O)[*:2])N[*:1]; NMeDha = C=C(NC)C(=O)O",
  "data": [
    {"molecule": "CCN(CCCOc1ccc2c(Nc3cc(CC(=O)Nc4cccc(F)c4)n[nH]3)ncnc2c1)CCOP(=O)(O)O", "note": "[AZD1152]", "values": [
      {"measurement": "inhibition of Aurora kinase B", "setting": "[1]", "result": "selective inhibitor"}
    ]},
    {"molecule": "Nc1nc2ccc(Cl)cc2c2nc(-c3ccco3)nn12", "note": "[CGS-15953]", "values": [
      {"measurement": "cytotoxicity for breast cancer cells expressing high levels of Fra-1", "setting": "[2]", "result": "*In an in vitro drug screen with the LOPAC library, we identified those two ADORA2B inhibitors as being selectively cytotoxic for breast cancer cells expressing high levels of Fra-1."}
    ]},
    {"molecule": "COC[C@@H]([C@H](O)[C@H](O)C(=O)NCC[C@H](C)c1nc(/C=C/C[C@@H]2O[C@]3(C[C@@H](O)[C@@H]2C)O[C@H]([C@H](C[C@H](O)[C@H](C)[C@H](O)[C@H](C)/C=C(C)/C(C)=C/C=C/C(C)=C\\C#N)OC)[C@H](OP(=O)(O)O)C3(C)C)co1)N(C)C", "note": "[Calyculin A]", "values": [
      {"measurement": "potency for PP2A", "setting": "[3]; description of known inhibitor", "result": "high potency for PP2A, low potency for PP1"},
      {"measurement": "potency for PP1", "setting": "[4]", "result": "high potency for PP2A, low potency for PP1"}
    ]},
    {"molecule": "C[C@@]12C(=O)OC(=O)[C@]1(C)[C@H]1CC[C@@H]2O1", "note": "[Candharidin]", "values": [
      {"measurement": "potency for PP2A", "setting": "[3]; description of known inhibitor", "result": "selective inhibitor of PP2A"}
    ]},
    {"molecule": "CC1(C(=O)O)C2CCC(O2)C1(C)C(=O)O", "note": "(centres unmarked) [Cantharidic acid]", "values": [
      {"measurement": "potency for PP2A", "setting": "[3]", "result": "inhibits PP2A and PP1 (for use in protein purification)"},
      {"measurement": "potency for PP1", "setting": "[4]", "result": "inhibits PP2A and PP1 (for use in protein purification)"}
    ]},
    {"molecule": "Cn1cc(NC(=O)c2cc(NC(=O)c3cc(NC=O)cn3C)cn2C)cc1C(=O)NCCC(=N)N", "note": "[Distamycin]", "values": [
      {"measurement": "inhibition of E2F1-DNA complex", "setting": "[5]", "result": "specifically inhibits E2F1-DNA complex"}
    ]},
    {"molecule": "O=C(O)[C@@H]1[C@H](C(=O)O)[C@H]2CC[C@@H]1O2", "note": "[Endothall]", "values": [
      {"measurement": "potency for PP2A", "setting": "[3]; description of known inhibitor", "result": "intermediate potency for PP2A"}
    ]},
    {"molecule": "C[C@@](O)(/C=C/[C@H]1CC=CC(=O)O1)[C@@H](C[C@@H](O)\\C=C/C=C\\C=C\\CO)OP(=O)(O)O", "note": "[Fostriecin sodium salt]", "values": [
      {"measurement": "potency for PP4", "setting": "[6]", "result": "potent inhibitors for PP2A and PP4"},
      {"measurement": "potency for PP2A", "setting": "[3]; description of known inhibitor", "result": "potent inhibitors for PP2A and PP4"}
    ]},
    {"molecule": "C=C1C(=O)N[C@H](C)C(=O)N[C@@H](CC(C)C)C(=O)N[C@@H](C(=O)O)[C@H](C)C(=O)N[C@@H](CCCNC(=N)N)C(=O)N[C@@H](/C=C/C(C)=C/[C@H](C)[C@H](Cc2ccccc2)OC)[C@H](C)C(=O)N[C@@H](C(=O)O)CCC(=O)N1C", "note": "[Microcystin LR] (R[Adda][d(γGlu)][NMeDha][dA]L[dAsp(3S-Me)]-OH; lactam N-7)", "values": [
      {"measurement": "potency for PP2A compared to PP1", "setting": "[3]", "result": "more potent for PP2A when compared to PP1"}
    ]},
    {"molecule": "C=C1[C@@H](O)[C@@H]2O[C@]3(CC[C@H](/C=C/[C@@H](C)[C@@H]4CC(C)=C[C@@]5(O[C@H](C[C@@](C)(O)C(=O)O)CC[C@H]5O)O4)O3)CC[C@H]2O[C@@H]1[C@@H](O)C[C@H](C)[C@H]1O[C@@]2(CCCCO2)CC[C@H]1C", "note": "[Okadaic acid]", "values": [
      {"measurement": "inhibition of PP2A", "setting": "[3]; at 1 nM", "result": "completely inhibits PP2A at 1 nM (less potent for PP1)"},
      {"measurement": "potency for PP1", "setting": "[4]", "result": "completely inhibits PP2A at 1 nM (less potent for PP1)"}
    ]},
    {"molecule": "CCCn1c(=O)[nH]c2nc(-c3ccc(S(=O)(=O)N4CCN(Cc5ccccc5)CC4)cc3)[nH]c2c1=O", "note": "[PSB601]", "values": [
      {"measurement": "antagonism of adenosine A2b receptor", "setting": "[7]", "result": "specific antagonist"}
    ]},
    {"molecule": "N=C(N)c1ccc(OCCCCCOc2ccc(C(=N)N)cc2)cc1", "note": "[Pentamidine]", "values": [
      {"measurement": "inhibition of PRLs", "setting": "[8]", "result": "inhibits all PRLs"}
    ]},
    {"molecule": "Toutomycin", "values": [
      {"measurement": "potency for PP2A compared to PP1", "setting": "[3]; PP2A versus PP1", "result": "more potent for PP1, less for PP2A"}
    ]}
  ]
}
